Values of other authors in patent US20100215723A1, “Wound Dressing with Antimicrobial Gauze and Bonding Agent” (priority 2009, published 2010).

Columns and labels:
[1] = test system: aspergillus niger; settings: stated as known
[2] = test system: pseudomonas aeruginosa; settings: stated as known

Substance: Polyhexamethylene biguanide [PHMB]
- indicative MIC value [1]: 750 ppm
- indicative MIC value [2]: 100 ppm
